Molecular target: T1, wild-type human cardiac sodium channel, hNav1.5 (Homo sapiens, UniProt Q14524)
Assay: Late INa screening assay (QPatch whole cell patch clamp, Tefluthrin-induced late current)
Assay type: cell-based
Settings: 1 uM; HEK293 hNav1.5; percent block of late INa
Description: (§1) The cardiac late sodium current (Late INa) and peak sodium current (Peak INa) assays are performed on an automated electrophysiology platform, QPatch 16X or QPatch HT (Sophion Bioscience, Copenhagen, Denmark) using the whole cell patch clamp technique to measure currents through the cell membrane. The assay uses an HEK293 (human embryonic kidney) cell line heterologously expressing the wild-type human cardiac sodium channel, hNav1.5, purchased from Millipore (Billerica, Mass.). No beta subunits were coexpressed with the Na channel alpha subunit. Cells are maintained with standard tissue culture procedures and stable channel expression is maintained with 400 μg/mL Geneticin in the culture medium. Experiments are carried out at 23-25° C.
(§2) For both the Late INa and Peak INa assays, series resistance compensation is set to 100% and series resistance and whole-cell compensation are performed automatically. Currents are digitized at 25 kHz and low-pass filtered at 5 kHz and stored in the Sophion Bioscience Oracle database (Sophion Bioscience, Copenhagen, Denmark). Analysis is performed using QPatch Assay software and data are compiled in Excel 2010 (Microsoft, Seattle, Wash., U.S.A.).
(§3) Compound stocks are routinely made by the Gilead Sample Bank in vials to 10 mM in dimethyl sulfoxide (DMSO). In some cases, when compounds are not soluble in DMSO, they are made in 100% ethanol. Stocks are sonicated as necessary. The extracellular solution for screening Late INa is composed of: 140 mM NaCl, 4 mM KCl, 1.8 mM CaCl2, 1 mM MgCl2, 10 mM HEPES and 10 mM Dextrose with pH adjusted to 7.35 using NaOH. The intracellular solution contains: 105 mM CsF, 20 mM CsCl, 10NaF, 2 mM EGTA, 10 mM HEPES and 10 mM Dextrose with pH adjusted to 7.35 with CsOH. Compounds are diluted in extracellular solution using a MicroLab Nimbus (Hamilton Robotics, Reno, Nev.) to between 0.3 and 3 μM in glass vials and transferred to glass well plates before robotic addition to the cells. The 0 mM Na extracellular solution (0Na-ECF) used at the end of each experiment for the Late INa and Peak INa assays to measure baseline current contains: 140 Choline-Cl; 4 mM KCl, 1.8 mM CaCl2; 1 mM MgCl2; 10 mM HEPES and 10 mM Dextrose with pH was adjusted to 7.35 with CsOH.
For the Late INa assay, sodium channels are activated every 10 seconds (0.1 Hz) by depolarizing the cell membrane to −20 mV for 250 milliseconds (ms) from a holding potential of −120 mV.
Compounds were tested to determine their activity in blocking the late sodium current. Late INa was generated by adding 10 μM Tefluthrin (pyrethroid) to the extracellular solution. For the purposes of the screening, Late INa is defined as the mean current between […] during the voltage step to −20 mV. After establishing the whole cell recording configuration, Late INa activator is added to each well 4 times over a 15 minute period so that the late component of the Na current reaches a stable value. Compounds were then added (typically at 0.3 or 1 μM), in the presence of the Late Na^+ activator, with 3 additions over the course of 5 minutes. Measurements were made at the end of exposure to the third compound addition and values were normalized to the current level when all Na^+ was removed from the extracellular solution after two additions of 0Na-ECF.
Results are reported as percent block of late INa and results were analyzed by incorporating rundown correction for the Late INa.

T1 sequence (Q14524 whole entry): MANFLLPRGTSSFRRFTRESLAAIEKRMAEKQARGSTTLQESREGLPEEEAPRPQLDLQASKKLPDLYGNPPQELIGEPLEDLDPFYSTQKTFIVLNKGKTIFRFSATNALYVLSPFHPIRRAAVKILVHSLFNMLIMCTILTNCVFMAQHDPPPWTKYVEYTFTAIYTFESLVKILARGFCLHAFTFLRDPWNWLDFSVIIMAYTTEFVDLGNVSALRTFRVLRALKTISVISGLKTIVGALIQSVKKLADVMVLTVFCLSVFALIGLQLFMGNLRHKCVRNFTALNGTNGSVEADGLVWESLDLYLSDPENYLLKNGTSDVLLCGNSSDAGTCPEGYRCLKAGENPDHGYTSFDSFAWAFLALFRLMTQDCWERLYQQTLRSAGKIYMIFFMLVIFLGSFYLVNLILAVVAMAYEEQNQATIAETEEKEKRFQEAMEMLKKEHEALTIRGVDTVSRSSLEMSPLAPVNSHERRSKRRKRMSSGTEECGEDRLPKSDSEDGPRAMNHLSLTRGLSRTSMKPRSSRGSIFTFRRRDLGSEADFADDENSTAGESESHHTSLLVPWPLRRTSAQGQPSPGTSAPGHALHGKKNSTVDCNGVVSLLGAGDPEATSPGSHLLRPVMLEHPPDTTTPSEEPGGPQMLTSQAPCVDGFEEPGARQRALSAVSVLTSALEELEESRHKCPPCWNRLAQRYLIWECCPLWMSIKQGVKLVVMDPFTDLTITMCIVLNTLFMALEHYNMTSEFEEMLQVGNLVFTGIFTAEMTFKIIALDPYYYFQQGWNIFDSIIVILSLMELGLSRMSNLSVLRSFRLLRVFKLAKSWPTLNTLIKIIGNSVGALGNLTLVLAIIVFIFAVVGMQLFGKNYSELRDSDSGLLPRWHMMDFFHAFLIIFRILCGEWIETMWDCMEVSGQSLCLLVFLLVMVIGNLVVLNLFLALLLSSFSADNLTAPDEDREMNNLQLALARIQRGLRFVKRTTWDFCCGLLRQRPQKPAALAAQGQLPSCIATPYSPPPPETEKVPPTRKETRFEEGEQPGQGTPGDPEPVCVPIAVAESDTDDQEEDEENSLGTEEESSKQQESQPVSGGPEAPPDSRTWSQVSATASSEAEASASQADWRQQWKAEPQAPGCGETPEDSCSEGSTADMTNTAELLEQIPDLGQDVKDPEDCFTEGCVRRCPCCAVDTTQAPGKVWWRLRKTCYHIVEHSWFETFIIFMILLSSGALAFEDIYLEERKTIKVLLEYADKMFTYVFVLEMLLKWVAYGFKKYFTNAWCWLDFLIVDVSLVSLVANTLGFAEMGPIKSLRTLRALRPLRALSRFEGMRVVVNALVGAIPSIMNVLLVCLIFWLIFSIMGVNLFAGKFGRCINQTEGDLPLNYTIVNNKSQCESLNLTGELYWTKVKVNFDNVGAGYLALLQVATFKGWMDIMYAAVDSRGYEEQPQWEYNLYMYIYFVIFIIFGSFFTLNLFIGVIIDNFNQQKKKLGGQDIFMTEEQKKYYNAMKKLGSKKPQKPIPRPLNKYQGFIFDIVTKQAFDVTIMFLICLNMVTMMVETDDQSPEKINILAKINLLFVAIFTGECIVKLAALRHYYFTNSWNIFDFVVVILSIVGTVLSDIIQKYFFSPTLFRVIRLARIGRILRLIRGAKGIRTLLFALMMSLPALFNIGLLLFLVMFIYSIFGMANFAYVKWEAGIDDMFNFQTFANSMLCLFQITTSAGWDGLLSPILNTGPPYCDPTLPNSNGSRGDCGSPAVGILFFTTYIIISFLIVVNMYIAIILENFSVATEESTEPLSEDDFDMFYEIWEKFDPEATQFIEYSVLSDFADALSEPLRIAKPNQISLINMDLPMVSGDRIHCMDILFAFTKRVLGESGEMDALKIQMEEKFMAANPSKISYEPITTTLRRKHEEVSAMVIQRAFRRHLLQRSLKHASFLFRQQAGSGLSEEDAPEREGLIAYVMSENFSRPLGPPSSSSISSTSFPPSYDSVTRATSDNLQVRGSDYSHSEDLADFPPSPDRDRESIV

Row | Compound | inhibition at 1 µM
1 | Fc1cc(OC(F)(F)F)ccc1-c1ccc2onc(OCc3ncccn3)c2c1 [Example 2, 5-(2-fluoro-4-(trifluoromethoxy)phenyl)-3-(pyrimidin-2-ylmethoxy)benzo[d]isoxazole] | 54.6%
2 | COc1cc2onc(OCc3ncccn3)c2cc1-c1ccc(OC(F)(F)F)cc1 [Example 11, 6-methoxy-3-(pyrimidin-2-ylmethoxy)-5-(4-(trifluoromethoxy)phenyl)benzo[d]isoxazole] | 30%
3 | Cc1cc(-c2cccc(OC(F)(F)F)c2)cc2c(OCc3ncccn3)noc12 [Example 19, 7-methyl-3-(pyrimidin-2-ylmethoxy)-5-(3-(trifluoromethoxy)phenyl)benzo[d]isoxazole] | 27.5%
4 | c1cnc(COc2noc3ccc(-c4ccc(C5CC5)nc4)cc23)nc1 [Example 20, 5-(6-cyclopropylpyridin-3-yl)-3-(pyrimidin-2-ylmethoxy)benzo[d]isoxazole] | 28.8%
5 | Cc1cc(-c2cc3c(OCc4ncccn4)noc3cc2F)ccc1OC(F)(F)F [Example 32, 6-fluoro-5-(3-methyl-4-(trifluoromethoxy)phenyl)-3-(pyrimidin-2-ylmethoxy)benzo[d]isoxazole] | 28.8%
6 | Cc1cc(OC(F)(F)F)ccc1-c1cc2c(OCc3ncccn3)noc2cc1F [Example 34, 6-fluoro-5-(2-methyl-4-(trifluoromethoxy)phenyl)-3-(pyrimidin-2-ylmethoxy)benzo[d]isoxazole] | 21%
7 | Cn1cnc(COc2noc3ccc(-c4ccc(OC(F)(F)F)cc4)cc23)c1 [Example 43, 3-((1-methyl-1H-imidazol-4-yl)methoxy)-5-(4-(trifluoromethoxy)phenyl)benzo[d]isoxazole] | 27.1%
8 | Cc1nc(COc2noc3ccc(-c4ccc(OC(F)(F)F)cc4)cc23)c(C)o1 [Example 52, 3-((2,5-dimethyloxazol-4-yl)methoxy)-5-(4-(trifluoromethoxy)phenyl)benzo[d]isoxazole] | 24.3%
9 | N#CCC1(COc2noc3ccc(-c4ccc(OC(F)(F)F)cc4)cc23)CC1 [Example 54, 2-(1-(((5-(4-(trifluoromethoxy)phenyl)benzo[d]isoxazol-3-yl)oxy)methyl)cyclopropyl)acetonitrile] | 29.2%
10 | O=C1CC[C@@H](COc2noc3ccc(-c4ccc(OC(F)(F)F)cc4)cc23)N1 [Example 62, (S)-5-(((5-(4-(trifluoromethoxy)phenyl)benzo[d]isoxazol-3-yl)oxy)methyl)pyrrolidin-2-one] | 28.4%
11 | FC(F)(F)Oc1ccc(-c2ccc3onc(OCc4cnn(-c5ccccn5)c4)c3c2)cc1 [Example 65, 3-((1-(pyridin-2-yl)-1H-pyrazol-4-yl)methoxy)-5-(4-(trifluoromethoxy)phenyl)benzo[d]isoxazole] | 27%
12 | FC(F)(F)Oc1ccc(-c2ccc3onc(OCCc4ncc[nH]4)c3c2)cc1 [Example 66, 3-(2-(1H-imidazol-2-yl)ethoxy)-5-(4-(trifluoromethoxy)phenyl)benzo[d]isoxazole] | 21.9%
13 | Cc1cc(C)n(CCOc2noc3ccc(-c4ccc(OC(F)(F)F)cc4)cc23)n1 [Example 69, 3-(2-(3,5-dimethyl-1H-pyrazol-1-yl)ethoxy)-5-(4-(trifluoromethoxy)phenyl)benzo[d]isoxazole] | 29.6%
14 | FC(F)(F)Oc1ccc(-c2ccc3onc(OCc4nccc(N5CCOCC5)n4)c3c2)cc1 [Example 70, 3-((4-morpholinopyrimidin-2-yl)methoxy)-5-(4-(trifluoromethoxy)phenyl)benzo[d]isoxazole] | 25.5%
15 | FC(F)(F)Oc1ccc(-c2ccc3onc(OCc4cc5ccccc5cn4)c3c2)cc1 [Example 82, 3-(isoquinolin-3-ylmethoxy)-5-(4-(trifluoromethoxy)phenyl)benzo[d]isoxazole] | 28.1%
16 | FC(F)(F)Oc1ccc(-c2ccc3onc(OCc4c[nH]nn4)c3c2)cc1 [Example 83, 3-((1H-1,2,3-triazol-4-yl)methoxy)-5-(4-(trifluoromethoxy)phenyl)benzo[d]isoxazole] | 23.7%
17 | Fc1cc(-c2ccc(OC(F)(F)F)cc2)cc2c(OCCn3cncn3)noc12 [Example 84, 3-(2-(1H-1,2,4-triazol-1-yl)ethoxy)-7-fluoro-5-(4-(trifluoromethoxy)phenyl)benzo[d]isoxazole] | 23.6%
18 | O=S1(=O)CCN(CCOc2noc3ccc(-c4ccc(OC(F)(F)F)cc4)cc23)CC1 [Example 85, 4-(2-((5-(4-(trifluoromethoxy)phenyl)benzo[d]isoxazol-3-yl)oxy)ethyl)thiomorpholine 1,1-dioxide] | 22.5%
19 | FC(F)(F)Oc1ccc(-c2ccc3onc(OCc4nccc(C(F)(F)F)n4)c3c2)cc1 [Example 86, 5-(4-(trifluoromethoxy)phenyl)-3-((4-(trifluoromethyl)pyrimidin-2-yl)methoxy)benzo[d]isoxazole] | 21.9%
20 | COc1ccnc(COc2noc3c(C)cc(-c4ccc(OC(F)(F)F)cc4)cc23)n1 [Example 90, 3-((4-methoxypyrimidin-2-yl)methoxy)-7-methyl-5-(4-(trifluoromethoxy)phenyl)benzo[d]isoxazole] | 20.9%
21 | Cc1cccc(COc2noc3c(C)cc(-c4ccc(OC(F)(F)F)cc4)cc23)n1 [Example 106, 7-methyl-3-((6-methylpyridin-2-yl)methoxy)-5-(4-(trifluoromethoxy)phenyl)benzo[d]isoxazole] | 28.3%
22 | CC(C)Nc1noc2ccc(-c3ccc(OC(F)(F)F)cc3)cc12 [Example 131, N-isopropyl-5-(4-(trifluoromethoxy)phenyl)benzo[d]isoxazol-3-amine] | 24.8%
23 | O=C1CC[C@H](CNc2noc3ccc(-c4ccc(OC(F)(F)F)cc4)cc23)N1 [Example 134, (R)-5-(((5-(4-(trifluoromethoxy)phenyl)benzo[d]isoxazol-3-yl)amino)methyl)pyrrolidin-2-one] | 21.1%
24 | Cc1nccn1-c1noc2ccc(-c3ccc(OC(F)(F)F)cc3)cc12 [Example 138, 3-(2-methyl-1H-imidazol-1-yl)-5-(4-(trifluoromethoxy)phenyl)benzo[d]isoxazole] | 29.8%

Molecular target: T1, wild-type human cardiac sodium channel, hNav1.5
Assay: Peak INa screening assay (tonic block and use-dependent block)
Assay type: cell-based
Settings: tonic block of Peak INa, 0.1 Hz, holding -100 mV, read-out: Peak TB 3 uM
Description: as §1, §2, §3
Compounds were evaluated for their effect Nav1.5 Peak INa. It is contemplated that the compounds of Formula I avoid significant block of peak INa. Since the peak INa in the cells used herein can be very large, introducing artifacts in the recording, the concentration of Na^+ in the bath can be reduced to 40 mM by isosmotic replacement of Na^+ with Choline (see below).
Tonic Block (TB) of Peak INa was measured using a voltage step to −20 mV from a holding potential of −100 mV at a low stimulation frequency of 0.1 Hz. Use-Dependent Block (UDB) of Peak INa was measured during pulse number 50 of a pulse train (−20 mV, 20 ms, 50 pulses, 3 Hz) from a holding potential of −100 mV.
The extracellular solution for screening Peak INa is composed of: 40 mM NaCl, 100 mM Choline-Cl, 4 mM KCl, 1.8 mM CaCl2, 1 mM MgCl2 10 mM HEPES and 10 mM Dextrose with pH adjusted to 7.35 using NaOH. The intracellular solution used for the Peak INa assay is the same as outlined for the Late INa assay (see above).
After establishing the whole cell recording configuration, channels were stimulated to open with low frequency (0.1 Hz) so that the recording can be monitored and the extent to which the recording has stabilized can be assessed.
The test compound is then applied at 1 or 3 μM and was added 2 times at 60 second intervals. After the second compound addition, a 200 second wait period was imposed to allow for equilibration. Voltage protocols for TB and UDB are were performed in the absence and presence of compound and TB and UDB are calculated with respect to the compound free condition. Both TB and UDB were analyzed by incorporating rundown correction for the peak INa.

Row | Compound | inhibition at 3 µM
25 | Fc1cc(OC(F)(F)F)ccc1-c1ccc2onc(OCc3ncccn3)c2c1 [Example 2, 5-(2-fluoro-4-(trifluoromethoxy)phenyl)-3-(pyrimidin-2-ylmethoxy)benzo[d]isoxazole] | 66.1%

Same assay, conditions: use-dependent block of Peak INa, 3 Hz, pulse 50, read-out: Peak UDB 3 Hz 3 uM

Row | Compound | inhibition at 3 µM
26 | Fc1cc(OC(F)(F)F)ccc1-c1ccc2onc(OCc3ncccn3)c2c1 [Example 2, 5-(2-fluoro-4-(trifluoromethoxy)phenyl)-3-(pyrimidin-2-ylmethoxy)benzo[d]isoxazole] | 27.9%

From patent US9416115B2, “Fused heterocyclic compounds as ion channel modulators” (Gilead Sciences, Inc., priority 2013, dated 2016)
